Results on 31 compounds are retold here after US9187455B2, “Substituted pyridazines as PDE10A inhibitors” (Hoffmann-La Roche Inc., priority 2009, dated 2015).

As usually defined, the IC50 is the concentration that inhibits the measured activity by half.

Molecules are shown by their SMILES.

T1 sequence (Q9Y233 715-1055): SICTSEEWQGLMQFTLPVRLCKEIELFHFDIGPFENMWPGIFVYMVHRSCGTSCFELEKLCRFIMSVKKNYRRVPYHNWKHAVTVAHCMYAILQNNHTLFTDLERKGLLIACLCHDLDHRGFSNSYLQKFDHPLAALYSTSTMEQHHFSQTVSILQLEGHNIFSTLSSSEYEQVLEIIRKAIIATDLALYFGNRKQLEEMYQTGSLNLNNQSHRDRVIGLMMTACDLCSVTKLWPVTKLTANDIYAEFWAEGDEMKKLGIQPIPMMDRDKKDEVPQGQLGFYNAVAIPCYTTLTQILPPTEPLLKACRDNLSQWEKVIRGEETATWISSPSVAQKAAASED

The test addresses T1, PDE10A2 (Homo sapiens, UniProt Q9Y233).
T1 construct: residues serine 449 to aspartate 789; His6 (H6) with Gateway linker and thrombin cleavage site (N, cleaved yes); made in house; host or cells: E. coli BL21(DE3) pLysS
The test can be described thus: PDE10A2 Scintillation Proximity Assay (SPA), [3H]-cGMP hydrolysis. The format is biochemical. The following applies: catalytic domain of human PDE10A2 (S449-D789), 0.25 nM enzyme, 50 nM cGMP + 50 nM [3H]-cGMP, 30 minutes at room temperature; read-out: PDE10A2 inhibition IC50. As for the experimental part:
The following tests were carried out in order to determine the activity of the compounds of the present invention. PDE10 activity of the compounds of the present invention is determined using a Scintillation Proximity Assay (SPA)-based method similar to the one previously described (Fawcett, L. et al., ProcNatl Acad Sci USA (2000) 97(7):3702-3707).
PDE10A1 and PDE10A2 are two splice variants of PDE10A. There are these 2 splice variants known, which differ in the N-terminal part of the protein. The catalytic domains of PDE10A1 and PDE10A2 are identical. The assay for PDE10A2 described below is therefore also representative for PDE10A1 and also for PDE10A in general.
The PDE10A2 assay was performed in a two step procedure in 96-well micro titer plates. The reaction mixture of 80 μl contained 20 mM HEPES/10 mM MgCl2/[…] (pH 7.5), 50 nM cGMP (Sigma) and 50 nM [^3H]-cGMP (GE Healthcare), 0.25 nM PDE10A2 with or without a specific test compound. A range of concentrations of the potential inhibitor was used to generate data for calculating the concentration of inhibitor resulting in 50% of the effect (e.g. IC50, the concentration of the competitor inhibiting PDE10A2 activity 50%). Non-specific activity was tested without the enzyme. The reaction was initiated by addition of the substrate solution (cGMP and [^3H]-cGMP) and allowed to progress for 30 minutes at room temperature. The reaction was terminated by transferring 50 μl of the reaction mixture into an OptiPlate (Perkin Elmer) containing 25 μl of YSi-SPA scintillation beads (GE Healthcare) in 18 mM zinc sulphate solution (stop reagent). After 1 h under shaking, the plate was centrifuged one minute at 1000 rpm to allow beads to settle. Afterwards, radioactive counts were measured on a Perkin Elmer TopCount Scintillation plate reader.
The catalytic domain of human PDE10A2, residues serine 449 to aspartate 789, was amplified by PCR using cDNA (Origene) and the oligonucleotides 5′-GGGGACAAGTTTGT […]-3′ (with AttB1 recombination site in bold and thrombin protease cleavage site in italics) and 5′-[…]-3′ (with AttB2 recombination site in bold) which conferred Gateway recombination sites. The PCR product was used in a BP recombination reaction with pDONR221 to generate pENTR Thm-PDE10A2(S449-D789) which was DNA sequence verified and then used in an LR recombination reaction with a Gateway modified version of pET11a. The resulting expression vector, placT7.2H6-(gwl)-Thm-PDE10A2(S449-D789) was DNA sequence confirmed and transformed into E. coli strain BL21(DE3) pLysS and recombinant protein was produced in TB medium at 20° C. by induction to a final IPTG concentration of 0.5 mM at an optical density of 1.0 at 600 nm for 20 hours. About 30% of the protein was in the soluble fraction of the cell homogenate. The protein was purified using sequential chromatography on Ni-NTA and HiTrapQ/HiTrapS. After thrombin digest at room temperature a HiTrapChelating/HiTrap Benzamindin chromatography removed impurities, uncleaved protein and thrombin. Final purification of PDE10A2(S449-D789) was performed on a Superdex 75 size exclusion chromatography equilibrated with 25 mM HEPES pH 8.4, 0.15 M NaCl. The yield of pure protein was 2 mg/liter of culture volume is relatively low. The purity of the protein was >95%, monomeric and monodisperse as shown by SDS-PAGE, HPLC and analytical ultracentrifugation.
With `O=c1ccn(-c2ccncc2)nc1-c1ccnn1-c1cccc(Cl)n1` [Example 1, 3-[2-(6-Chloro-pyridin-2-yl)-2H-pyrazol-3-yl]-1-pyridin-4-yl-1H-pyridazin-4-one], the IC50 came out at 8100 nM.

For the compound `N#Cc1cccc(-n2nccc2-c2nn(-c3ccncc3)ccc2=O)c1` [Example 3, 3-[5-(4-Oxo-1-pyridin-4-yl-1,4-dihydro-pyridazin-3-yl)-pyrazol-1-yl]-benzonitrile], the IC50 was 319 nM.

With `O=c1ccn(-c2ccncc2)nc1-c1ccnn1-c1ccccc1F` [Example 4, 3-[2-(2-Fluoro-phenyl)-2H-pyrazol-3-yl]-1-pyridin-4-yl-1H-pyridazin-4-one], the IC50 is 115 nM.

Consider `O=C(O)c1cccc(-n2nccc2-c2nn(-c3ccncc3)ccc2=O)c1` [Example 5, 3-[5-(4-Oxo-1-pyridin-4-yl-1,4-dihydro-pyridazin-3-yl)-pyrazol-1-yl]-benzoic acid], for which the IC50 was 899 nM.

For `O=c1ccn(-c2ccncc2)nc1-c1ccnn1-c1ccc(Cl)cc1` [Example 6, 3-[2-(4-Chloro-phenyl)-2H-pyrazol-3-yl]-1-pyridin-4-yl-1H-pyridazin-4-one], the IC50 is 188 nM.

Regarding `O=c1ccn(-c2ccncc2)nc1-c1ccnn1-c1ccc(F)cc1` [Example 7, 3-[2-(4-Fluoro-phenyl)-2H-pyrazol-3-yl]-1-pyridin-4-yl-1H-pyridazin-4-one], the IC50 was determined as 183 nM.

For `NS(=O)(=O)c1ccc(-n2nccc2-c2nn(-c3ccncc3)ccc2=O)cc1` [Example 8, 4-[5-(4-Oxo-1-pyridin-4-yl-1,4-dihydro-pyridazin-3-yl)-pyrazol-1-yl]-benzenesulfonamide], the IC50 turned out to be 6330 nM.

Take `COC(=O)c1cccc(-n2nccc2-c2nn(-c3ccncc3)ccc2=O)c1` [Example 10, 3-[5-(4-Oxo-1-pyridin-4-yl-1,4-dihydro-pyridazin-3-yl)-pyrazol-1-yl]-benzoic acid methyl ester]: the IC50 came to 48 nM.

Regarding `Cc1ccc(-n2nccc2-c2nn(-c3ccncc3)ccc2=O)cc1` [Example 11, 1-Pyridin-4-yl-3-(2-p-tolyl-2H-pyrazol-3-yl)-1H-pyridazin-4-one], the IC50 was found to be 103 nM.

Turning to `O=c1ccn(-c2ccncc2)nc1-c1ccnn1-c1ccccc1Cl` [Example 12, 3-[2-(2-Chloro-phenyl)-2H-pyrazol-3-yl]-1-pyridin-4-yl-1H-pyridazin-4-one], the IC50 turned out to be 228 nM.

As for `O=c1ccn(-c2ccnc(Cl)c2)nc1-c1ccnn1-c1cccc2ccccc12` [Example 13, 1-(2-Chloro-pyridin-4-yl)-3-(2-naphthalen-1-yl-2H-pyrazol-3-yl)-1H-pyridazin-4-one], the IC50 was found to be 11 nM.

Turning to `O=c1ccn(-c2ccncc2)nc1-c1ccnn1-c1ccc2c(c1)OCCO2` [Example 15, 3-[2-(2,3-Dihydro-benzo[1,4]dioxin-6-yl)-2H-pyrazol-3-yl]-1-pyridin-4-yl-1H-pyridazin-4-one], the IC50 was 80 nM.

Turning to `CS(=O)(=O)c1cc(-n2ccc(=O)c(-c3ccnn3-c3cccc4ccccc34)n2)ccn1` [Example 16, 1-(2-Methanesulfonyl-pyridin-4-yl)-3-(2-naphthalen-1-yl-2H-pyrazol-3-yl)-1H-pyridazin-4-one], the IC50 came out at 15 nM.

Take `CS(=O)(=O)c1cc(-n2ccc(=O)c(-c3ccnn3-c3ccc4c(c3)OCCO4)n2)ccn1` [Example 17, 3-[2-(2,3-Dihydro-benzo[1,4]dioxin-6-yl)-2H-pyrazol-3-yl]-1-(2-methanesulfonyl-pyridin-4-yl)-1H-pyridazin-4-one]: the IC50 came to 96 nM.

Consider `O=c1ccn(-c2ccncc2)nc1-c1ccnn1-c1cccc(Cl)c1` [Example 18, 3-[2-(3-Chloro-phenyl)-2H-pyrazol-3-yl]-1-pyridin-4-yl-1H-pyridazin-4-one], for which the IC50 was found to be 140 nM.

Regarding `Cc1cc(-n2nccc2-c2nn(-c3ccncc3)ccc2=O)ccn1` [Example 19, 3-[2-(2-Methyl-pyridin-4-yl)-2H-pyrazol-3-yl]-1-pyridin-4-yl-1H-pyridazin-4-one], the IC50 was determined as 417 nM.

For the compound `O=c1ccn(-c2ccncc2)nc1-c1ccnn1-c1ccnc2ccccc12` [Example 20, 1-Pyridin-4-yl-3-(2-quinolin-4-yl-2H-pyrazol-3-yl)-1H-pyridazin-4-one], the IC50 worked out at 9 nM.

Consider `O=c1ccn(-c2ccncc2)nc1-c1ccnn1-c1cccc2cnccc12` [Example 21, 3-(2-Isoquinolin-5-yl-2H-pyrazol-3-yl)-1-pyridin-4-yl-1H-pyridazin-4-one], for which the IC50 is 28 nM.

`O=c1ccn(-c2ccncc2)nc1-c1ccnn1-c1cccc2ncccc12` [Example 22, 1-Pyridin-4-yl-3-(2-quinolin-5-yl-2H-pyrazol-3-yl)-1H-pyridazin-4-one]: the IC50 came to 35 nM.

Turning to `O=c1ccn(-c2ccncc2)nc1-c1ccnn1-c1ccnc(Cl)c1` [Example 23, 3-[2-(2-Chloro-pyridin-4-yl)-2H-pyrazol-3-yl]-1-pyridin-4-yl-1H-pyridazin-4-one], the IC50 turned out to be 1210 nM.

As for `O=c1ccn(-c2ccncc2)nc1-c1ccnn1-c1cccc2cccnc12` [Example 26, 1-Pyridin-4-yl-3-(2-quinolin-8-yl-2H-pyrazol-3-yl)-1H-pyridazin-4-one], the concentration for half-maximal inhibition (IC50) was found to be 806 nM.

With `O=c1ccn(-c2ccncc2)nc1-c1ccnn1-c1cccc2ccncc12` [Example 27, 3-(2-Isoquinolin-8-yl-2H-pyrazol-3-yl)-1-pyridin-4-yl-1H-pyridazin-4-one], the IC50 turned out to be 126 nM.

Regarding `CN(C)S(=O)(=O)c1cccc(-n2nccc2-c2nn(-c3ccncc3)ccc2=O)c1` [Example 28, N,N-Dimethyl-3-[5-(4-oxo-1-pyridin-4-yl-1,4-dihydro-pyridazin-3-yl)-pyrazol-1-yl]-benzenesulfonamide], the IC50 turned out to be 3230 nM.

Turning to `O=c1ccn(-c2ccncc2)nc1-c1ccnn1-c1cccc(F)c1F` [Example 29, 3-[2-(2,3-Difluoro-phenyl)-2H-pyrazol-3-yl]-1-pyridin-4-yl-1H-pyridazin-4-one], the IC50 was determined as 219 nM.

`O=c1ccn(-c2ccncc2)nc1-c1ccnn1-c1ccccc1` [Example 30, 3-(2-Phenyl-2H-pyrazol-3-yl)-1-pyridin-4-yl-1H-pyridazin-4-one]: the IC50 worked out at 69 nM.

In the case of `O=c1ccn(-c2ccncc2)nc1-c1ccnn1-c1ccncc1` [Example 31, 1-Pyridin-4-yl-3-(2-pyridin-4-yl-2H-pyrazol-3-yl)-1H-pyridazin-4-one], the IC50 was determined as 811 nM.

In the case of `O=c1ccn(-c2cccnc2)nc1-c1ccnn1-c1ccc2c(c1)OCO2` [Example 32, 3-(2-Benzo[1,3]dioxol-5-yl-2H-pyrazol-3-yl)-1-pyridin-3-yl-1H-pyridazin-4-one], the IC50 came to 150 nM.

`O=c1ccn(-c2cccnc2)nc1-c1ccnn1-c1ccccn1` [Example 33, 1-Pyridin-3-yl-3-(2-pyridin-2-yl-2H-pyrazol-3-yl)-1H-pyridazin-4-one]: the IC50 amounted to 2940 nM.

On to `O=c1ccn(-c2cccnc2)nc1-c1ccnn1-c1ccc2c(c1)OCCO2` [Example 34, 3-[2-(2,3-Dihydro-benzo[1,4]dioxin-6-yl)-2H-pyrazol-3-yl]-1-pyridin-3-yl-1H-pyridazin-4-one], for which the IC50 came out at 81 nM.

In the case of `O=c1ccn(-c2cccnc2)nc1-c1ccnn1-c1cccc(F)c1` [Example 35, 3-[2-(3-Fluoro-phenyl)-2H-pyrazol-3-yl]-1-pyridin-3-yl-1H-pyridazin-4-one], the half-inhibitory concentration (IC50) came out at 285 nM.

`Cc1cncc(-n2ccc(=O)c(-c3ccnn3-c3ccc4c(c3)OCCO4)n2)c1` [Example 36, 3-[2-(2,3-Dihydro-benzo[1,4]dioxin-6-yl)-2H-pyrazol-3-yl]-1-(5-methyl-pyridin-3-yl)-1H-pyridazin-4-one]: the IC50 was found to be 71 nM.
